Reference: the NIST ThermoML archive (doi:10.1021/je2008582)

Settings: Liquid, Vibrating tube method

CCCCC/C=C\C/C=C\CCCCCCCC(=O)OC [methyl (Z,Z)-9,12-octadecadienate]
Settings	mass density [kg/m3]
270 K, 490 kPa	904.6
270 K, 990 kPa	904.9
270 K, 1990 kPa	905.4
270 K, 3000 kPa	905.9
270 K, 3990 kPa	906.5
270 K, 5000 kPa	907
270 K, 10000 kPa	909.6
270 K, 20000 kPa	914.6
270 K, 29990 kPa	919.3
270 K, 39990 kPa	923.8
270 K, 49970 kPa	928.2
290 K, 500 kPa	889.7
290 K, 990 kPa	890
290 K, 1990 kPa	890.6
290 K, 2990 kPa	891.2
290 K, 3990 kPa	891.8
290 K, 5000 kPa	892.4
290 K, 9990 kPa	895.2
290 K, 19990 kPa	900.7
290 K, 30000 kPa	905.8
290 K, 39990 kPa	910.7
290 K, 49970 kPa	915.3
310 K, 500 kPa	875.1
310 K, 1000 kPa	875.4
310 K, 1990 kPa	876.1
310 K, 2990 kPa	876.7
310 K, 3990 kPa	877.4
310 K, 4990 kPa	878
310 K, 9990 kPa	881.1
310 K, 20000 kPa	887
310 K, 30000 kPa	892.5
310 K, 39990 kPa	897.8
310 K, 49990 kPa	902.8
330 K, 490 kPa	860.6
330 K, 990 kPa	860.9
330 K, 1990 kPa	861.6
330 K, 2990 kPa	862.4
330 K, 3990 kPa	863.1
330 K, 4990 kPa	863.8
330 K, 9990 kPa	867.1
330 K, 19990 kPa	873.5
330 K, 29980 kPa	879.5
330 K, 39990 kPa	885.1
330 K, 50000 kPa	890.4
350 K, 500 kPa	846.2
350 K, 1000 kPa	846.6
350 K, 1990 kPa	847.4
350 K, 2990 kPa	848.2
350 K, 3990 kPa	848.9
350 K, 5000 kPa	849.7
350 K, 9990 kPa	853.4
350 K, 19990 kPa	860.3
350 K, 29990 kPa	866.7
350 K, 40000 kPa	872.7
350 K, 49980 kPa	878.4
370 K, 490 kPa	831.6
370 K, 990 kPa	832.1
370 K, 1990 kPa	832.9
370 K, 2990 kPa	833.8
370 K, 4000 kPa	834.6
370 K, 5000 kPa	835.5
370 K, 10000 kPa	839.5
370 K, 19990 kPa	847
370 K, 29990 kPa	854
370 K, 39990 kPa	860.4
370 K, 49980 kPa	866.4
390 K, 490 kPa	817.1
390 K, 990 kPa	817.6
390 K, 1990 kPa	818.5
390 K, 3000 kPa	819.5
390 K, 3990 kPa	820.4
390 K, 4990 kPa	821.3
390 K, 9990 kPa	825.8
390 K, 20000 kPa	834
390 K, 29990 kPa	841.4
390 K, 40000 kPa	848.3
390 K, 49990 kPa	854.7
410 K, 490 kPa	802.5
410 K, 1000 kPa	803
410 K, 2000 kPa	804.1
410 K, 2990 kPa	805.1
410 K, 3990 kPa	806.2
410 K, 4990 kPa	807.2
410 K, 9990 kPa	812.1
410 K, 19990 kPa	821
410 K, 29990 kPa	829.1
410 K, 40000 kPa	836.5
410 K, 49970 kPa	843.3
430 K, 490 kPa	787.5
430 K, 1000 kPa	788.1
430 K, 1990 kPa	789.3
430 K, 2990 kPa	790.5
430 K, 3990 kPa	791.6
430 K, 5000 kPa	792.7
430 K, 9990 kPa	798.1
430 K, 19990 kPa	807.9
430 K, 29990 kPa	816.6
430 K, 40000 kPa	824.5
430 K, 50010 kPa	831.8
450 K, 490 kPa	772.5
450 K, 990 kPa	773.2
450 K, 2000 kPa	774.5
450 K, 2990 kPa	775.8
450 K, 4000 kPa	777.1
450 K, 4990 kPa	778.3
450 K, 10000 kPa	784.3
450 K, 19990 kPa	794.9
450 K, 30000 kPa	804.3
450 K, 39990 kPa	812.8
450 K, 49980 kPa	820.6
470 K, 500 kPa	757.5
470 K, 990 kPa	758.3
470 K, 1990 kPa	759.7
470 K, 3000 kPa	761.2
470 K, 3990 kPa	762.6
470 K, 4990 kPa	764
470 K, 9990 kPa	770.6
470 K, 19990 kPa	782.2
470 K, 29990 kPa	792.4
470 K, 39990 kPa	801.5
470 K, 49980 kPa	809.7

CCCCCCCC/C=C\CCCCCCCC(=O)OC [methyl cis-9-octadecenoate]
Settings	mass density [kg/m3]
270 K, 490 kPa	892.3
270 K, 990 kPa	892.6
270 K, 1990 kPa	893.2
270 K, 2990 kPa	893.7
270 K, 3990 kPa	894.3
270 K, 4990 kPa	894.8
270 K, 9990 kPa	897.4
270 K, 19990 kPa	902.4
270 K, 29990 kPa	907.1
270 K, 39990 kPa	911.7
270 K, 49830 kPa	915.9
290 K, 490 kPa	877.7
290 K, 1000 kPa	878
290 K, 2000 kPa	878.6
290 K, 3000 kPa	879.2
290 K, 3990 kPa	879.8
290 K, 4990 kPa	880.4
290 K, 10000 kPa	883.3
290 K, 19990 kPa	888.7
290 K, 29990 kPa	893.8
290 K, 39990 kPa	898.7
290 K, 49960 kPa	903.4
310 K, 490 kPa	863.3
310 K, 990 kPa	863.6
310 K, 2000 kPa	864.3
310 K, 3000 kPa	865
310 K, 4000 kPa	865.6
310 K, 5000 kPa	866.2
310 K, 9990 kPa	869.3
310 K, 20000 kPa	875.3
310 K, 29990 kPa	880.8
310 K, 39990 kPa	886.1
310 K, 49990 kPa	891.1
330 K, 500 kPa	849
330 K, 1000 kPa	849.3
330 K, 2000 kPa	850.1
330 K, 3000 kPa	850.8
330 K, 3990 kPa	851.5
330 K, 4990 kPa	852.2
330 K, 10000 kPa	855.6
330 K, 19990 kPa	862
330 K, 29990 kPa	868
330 K, 39990 kPa	873.6
330 K, 49990 kPa	878.9
350 K, 500 kPa	834.6
350 K, 990 kPa	835
350 K, 2000 kPa	835.8
350 K, 2990 kPa	836.6
350 K, 3990 kPa	837.3
350 K, 5000 kPa	838.1
350 K, 9990 kPa	841.8
350 K, 20000 kPa	848.8
350 K, 30000 kPa	855.3
350 K, 40000 kPa	861.3
350 K, 49980 kPa	867
370 K, 500 kPa	820.1
370 K, 990 kPa	820.6
370 K, 1990 kPa	821.4
370 K, 2990 kPa	822.3
370 K, 3990 kPa	823.2
370 K, 5010 kPa	824
370 K, 10000 kPa	828.1
370 K, 20010 kPa	835.7
370 K, 29990 kPa	842.6
370 K, 39990 kPa	849.1
370 K, 49970 kPa	855.1
390 K, 490 kPa	805.7
390 K, 990 kPa	806.2
390 K, 2000 kPa	807.1
390 K, 3000 kPa	808.1
390 K, 3990 kPa	809
390 K, 5000 kPa	810
390 K, 10000 kPa	814.5
390 K, 19990 kPa	822.7
390 K, 29980 kPa	830.2
390 K, 40000 kPa	837.2
390 K, 49990 kPa	843.6
410 K, 490 kPa	791
410 K, 990 kPa	791.6
410 K, 2000 kPa	792.7
410 K, 3000 kPa	793.7
410 K, 3990 kPa	794.8
410 K, 5000 kPa	795.8
410 K, 10000 kPa	800.8
410 K, 20000 kPa	809.8
410 K, 30000 kPa	817.9
410 K, 39990 kPa	825.3
410 K, 50000 kPa	832.2
430 K, 500 kPa	776.2
430 K, 1000 kPa	776.8
430 K, 1990 kPa	778
430 K, 3000 kPa	779.2
430 K, 3990 kPa	780.3
430 K, 4990 kPa	781.5
430 K, 9990 kPa	786.9
430 K, 19990 kPa	796.7
430 K, 29990 kPa	805.5
430 K, 39990 kPa	813.5
430 K, 49990 kPa	820.8
450 K, 490 kPa	761.2
450 K, 1000 kPa	761.9
450 K, 1990 kPa	763.2
450 K, 2990 kPa	764.5
450 K, 3990 kPa	765.8
450 K, 5000 kPa	767.1
450 K, 10000 kPa	773.1
450 K, 20000 kPa	783.9
450 K, 29990 kPa	793.3
450 K, 39990 kPa	801.9
450 K, 50010 kPa	809.7
470 K, 490 kPa	746.3
470 K, 990 kPa	747
470 K, 2000 kPa	748.6
470 K, 2990 kPa	750
470 K, 3990 kPa	751.5
470 K, 5010 kPa	752.9
470 K, 10000 kPa	759.5
470 K, 19990 kPa	771.2
470 K, 29990 kPa	781.5
470 K, 39990 kPa	790.6
470 K, 49970 kPa	798.8
